Laboratory results taken from ChEMBL document CHEMBL1151115, “Brianthein V, a New Cytotoxic and Antiviral Diterpene Isolated from Briareum asbestinum” (J Nat Prod, 1988).
The source made the active and inactive calls. No cut-off for these calls is given here.

Legend:
P388 [1] = assay: Cytotoxicity against mouse P388 cells at 13 ug/ml; format: functional, cell-based
Murine hepatitis virus [2] = assay: Antiviral activity against mouse coronavirus at 50 ug/ml; format: functional, organism-based
Human alphaherpesvirus 1 [3] = assay: Antiviral activity against herpes simplex virus 1 at 20 ug; format: functional, organism-based
P388 [4] = assay: Cytotoxicity against mouse P388 cells at 10 ug/ml; format: functional, cell-based
Murine hepatitis virus [5] = assay: Antiviral activity against mouse coronavirus at 80 ug/ml; format: functional, organism-based
Human alphaherpesvirus 1 [6] = assay: Antiviral activity against herpes simplex virus 1 at 80 ug/ml; format: functional, organism-based
Murine hepatitis virus [7] = assay: Antiviral activity against mouse coronavirus at 10 ug; format: functional, organism-based
Murine hepatitis virus [8] = assay: Antiviral activity against mouse coronavirus at 400 ug/ml; format: functional, organism-based
P388 [9] = assay: Cytotoxicity against mouse P388 cells at 0.1 ug; format: functional, cell-based

C=C1/C=C\[C@H](OC(=O)CCC)[C@]2(C)[C@H]([C@@H](C)[C@H](OC(=O)CCC)[C@@H]3O[C@@H]32)[C@H](OC(C)=O)[C@]2(O)[C@@H](C)C(=O)O[C@H]2[C@H]1Cl
Activity (P388 [1]): Active | Activity (Murine hepatitis virus [2]): Active

Nc1ncnc2c1ncn2[C@@H]1O[C@H](CO)[C@@H](O)[C@@H]1O
Activity (Human alphaherpesvirus 1 [3]): Active

C=C1/C=C\[C@H](OC(C)=O)[C@]2(C)[C@H]([C@@H](C)[C@H](OC(C)=O)[C@@H]3O[C@@H]32)[C@H](OC(C)=O)[C@]2(O)[C@@H](C)C(=O)O[C@H]2[C@H]1Cl
Activity (P388 [4]): Active | Activity (Murine hepatitis virus [5]): Active | Activity (Human alphaherpesvirus 1 [6]): Active

NC(=O)c1ncn([C@@H]2O[C@H](CO)[C@@H](O)[C@H]2O)n1
Activity (Murine hepatitis virus [7]): Active

C=C1/C=C\[C@H](OC(=O)CCC)[C@]2(C)[C@H]([C@@H](C)[C@H](OC(C)=O)[C@@H]3O[C@@H]32)[C@H](OC(C)=O)[C@]2(O)[C@@H](C)C(=O)O[C@H]2[C@H]1Cl
Activity (Murine hepatitis virus [8]): Active

O=c1[nH]cc(F)c(=O)[nH]1
Activity (P388 [9]): Active
